Patent US10633366B2, “Antibacterial compounds” (AZIENDE CHIMICHE RIUNITE ANGELINI FRANCESCO A.C.R.A.F. …, priority 2016, dated 2020)
Where two headings read alike, the source gives them in different places.

Assays:
Experiment in all cases: biochemical
[1] = target: S. aureus DNA gyrase (Staphylococcus aureus, UniProt P0A0K8+P20831); details: for IC50: IC50 DNA gyrase; for inhibition at 50 µM: read-out: % inhibition DNA gyrase
[2] = target: E. coli DNA gyrase (Escherichia coli, UniProt P0AES4+P0AES6); details: for IC50: IC50 DNA gyrase; for inhibition at 50 µM: read-out: % inhibition DNA gyrase
E. coli DNA gyrase, sequence (P0AES4 whole entry, one chain of several): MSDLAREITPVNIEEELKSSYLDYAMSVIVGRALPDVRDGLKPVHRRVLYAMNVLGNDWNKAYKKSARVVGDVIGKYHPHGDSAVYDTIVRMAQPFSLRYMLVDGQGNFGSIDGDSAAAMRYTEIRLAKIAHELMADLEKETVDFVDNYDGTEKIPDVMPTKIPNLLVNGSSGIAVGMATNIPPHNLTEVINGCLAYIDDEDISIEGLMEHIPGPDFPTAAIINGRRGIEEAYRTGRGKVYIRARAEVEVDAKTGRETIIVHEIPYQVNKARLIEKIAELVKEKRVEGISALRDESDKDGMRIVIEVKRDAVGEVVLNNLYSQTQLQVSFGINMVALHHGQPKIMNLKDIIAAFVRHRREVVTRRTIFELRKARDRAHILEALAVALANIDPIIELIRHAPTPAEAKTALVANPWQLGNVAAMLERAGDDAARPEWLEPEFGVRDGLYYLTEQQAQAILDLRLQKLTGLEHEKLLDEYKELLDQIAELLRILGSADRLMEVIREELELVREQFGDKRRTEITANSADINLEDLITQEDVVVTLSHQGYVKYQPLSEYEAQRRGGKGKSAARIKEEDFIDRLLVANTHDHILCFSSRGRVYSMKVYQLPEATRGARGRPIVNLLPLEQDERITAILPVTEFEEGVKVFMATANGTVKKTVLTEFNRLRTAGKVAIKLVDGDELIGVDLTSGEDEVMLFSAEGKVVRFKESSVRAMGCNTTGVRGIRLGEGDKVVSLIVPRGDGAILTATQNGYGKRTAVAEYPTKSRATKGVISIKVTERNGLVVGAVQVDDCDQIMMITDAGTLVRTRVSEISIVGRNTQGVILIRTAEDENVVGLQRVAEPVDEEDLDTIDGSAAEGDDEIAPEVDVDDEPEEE

[3] = target: S. aureus Topoisomerase IV (Staphylococcus aureus, UniProt P0C1S7+P0C1U9); details: for inhibition at 50 µM: read-out: % inhibition Topo IV
S. aureus Topoisomerase IV, sequence (P0C1U9 whole entry): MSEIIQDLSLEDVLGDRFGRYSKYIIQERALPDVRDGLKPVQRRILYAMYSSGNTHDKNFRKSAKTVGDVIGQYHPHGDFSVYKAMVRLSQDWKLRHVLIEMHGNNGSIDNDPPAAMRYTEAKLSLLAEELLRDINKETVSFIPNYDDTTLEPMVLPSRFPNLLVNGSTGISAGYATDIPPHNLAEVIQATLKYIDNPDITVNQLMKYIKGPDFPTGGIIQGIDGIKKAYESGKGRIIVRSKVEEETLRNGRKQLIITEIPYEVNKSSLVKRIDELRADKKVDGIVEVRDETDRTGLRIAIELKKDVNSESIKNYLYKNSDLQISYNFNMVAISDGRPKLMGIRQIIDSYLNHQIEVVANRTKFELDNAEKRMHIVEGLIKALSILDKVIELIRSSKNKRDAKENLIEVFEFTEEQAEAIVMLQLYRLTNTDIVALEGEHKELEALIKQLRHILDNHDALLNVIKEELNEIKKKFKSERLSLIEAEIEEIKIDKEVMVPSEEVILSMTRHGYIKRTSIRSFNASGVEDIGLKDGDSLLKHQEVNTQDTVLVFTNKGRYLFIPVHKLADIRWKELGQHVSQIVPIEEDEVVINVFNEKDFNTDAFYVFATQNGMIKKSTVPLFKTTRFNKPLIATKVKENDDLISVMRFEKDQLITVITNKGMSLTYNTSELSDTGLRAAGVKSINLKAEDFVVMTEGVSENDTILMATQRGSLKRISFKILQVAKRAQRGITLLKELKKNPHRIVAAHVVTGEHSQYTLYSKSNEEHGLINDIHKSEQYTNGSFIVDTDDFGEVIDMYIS
S. aureus Topoisomerase IV, sequence (P0C1S7 whole entry): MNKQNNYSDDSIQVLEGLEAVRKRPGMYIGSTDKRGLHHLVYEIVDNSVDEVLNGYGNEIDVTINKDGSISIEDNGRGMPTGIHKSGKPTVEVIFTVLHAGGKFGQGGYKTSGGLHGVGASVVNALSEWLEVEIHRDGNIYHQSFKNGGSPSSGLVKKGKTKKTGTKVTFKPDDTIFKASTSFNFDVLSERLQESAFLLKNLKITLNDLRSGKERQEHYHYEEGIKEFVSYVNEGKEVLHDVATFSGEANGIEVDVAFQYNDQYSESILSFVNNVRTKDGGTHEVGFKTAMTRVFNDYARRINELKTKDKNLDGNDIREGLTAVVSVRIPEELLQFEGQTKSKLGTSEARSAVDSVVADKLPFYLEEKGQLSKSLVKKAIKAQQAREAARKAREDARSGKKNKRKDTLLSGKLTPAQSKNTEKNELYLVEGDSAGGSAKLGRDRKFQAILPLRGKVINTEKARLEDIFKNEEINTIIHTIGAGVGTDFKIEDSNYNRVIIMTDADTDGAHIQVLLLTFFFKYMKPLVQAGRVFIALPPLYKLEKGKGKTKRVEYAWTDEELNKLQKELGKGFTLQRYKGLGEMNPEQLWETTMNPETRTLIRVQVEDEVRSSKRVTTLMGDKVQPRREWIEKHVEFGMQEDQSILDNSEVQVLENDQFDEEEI

[4] = target: E. coli Topoisomerase IV (Escherichia coli, UniProt P0AFI2+P20083); details: for IC50: IC50 Topo IV; for inhibition at 50 µM: read-out: % inhibition Topo IV
E. coli Topoisomerase IV, sequence (P0AFI2 whole entry): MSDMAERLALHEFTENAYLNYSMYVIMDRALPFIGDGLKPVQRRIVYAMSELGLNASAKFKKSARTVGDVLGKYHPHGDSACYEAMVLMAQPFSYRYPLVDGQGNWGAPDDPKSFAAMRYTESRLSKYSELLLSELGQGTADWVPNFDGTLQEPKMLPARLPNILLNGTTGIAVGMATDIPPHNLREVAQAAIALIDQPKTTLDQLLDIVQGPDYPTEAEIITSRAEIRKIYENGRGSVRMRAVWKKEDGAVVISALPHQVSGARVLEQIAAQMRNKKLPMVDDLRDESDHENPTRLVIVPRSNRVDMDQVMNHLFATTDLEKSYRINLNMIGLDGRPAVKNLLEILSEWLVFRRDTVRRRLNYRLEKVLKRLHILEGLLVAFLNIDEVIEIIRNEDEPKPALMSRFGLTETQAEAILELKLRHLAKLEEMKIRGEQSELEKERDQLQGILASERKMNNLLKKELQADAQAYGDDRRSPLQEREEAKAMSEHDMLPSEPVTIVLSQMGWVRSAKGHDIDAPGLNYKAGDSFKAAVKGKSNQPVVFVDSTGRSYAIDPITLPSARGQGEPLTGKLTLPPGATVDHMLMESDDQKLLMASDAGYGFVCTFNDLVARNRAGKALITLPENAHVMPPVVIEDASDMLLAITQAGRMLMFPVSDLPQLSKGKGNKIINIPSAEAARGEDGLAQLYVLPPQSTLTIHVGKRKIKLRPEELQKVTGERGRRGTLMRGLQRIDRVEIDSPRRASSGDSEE
E. coli Topoisomerase IV, sequence (P20083 whole entry): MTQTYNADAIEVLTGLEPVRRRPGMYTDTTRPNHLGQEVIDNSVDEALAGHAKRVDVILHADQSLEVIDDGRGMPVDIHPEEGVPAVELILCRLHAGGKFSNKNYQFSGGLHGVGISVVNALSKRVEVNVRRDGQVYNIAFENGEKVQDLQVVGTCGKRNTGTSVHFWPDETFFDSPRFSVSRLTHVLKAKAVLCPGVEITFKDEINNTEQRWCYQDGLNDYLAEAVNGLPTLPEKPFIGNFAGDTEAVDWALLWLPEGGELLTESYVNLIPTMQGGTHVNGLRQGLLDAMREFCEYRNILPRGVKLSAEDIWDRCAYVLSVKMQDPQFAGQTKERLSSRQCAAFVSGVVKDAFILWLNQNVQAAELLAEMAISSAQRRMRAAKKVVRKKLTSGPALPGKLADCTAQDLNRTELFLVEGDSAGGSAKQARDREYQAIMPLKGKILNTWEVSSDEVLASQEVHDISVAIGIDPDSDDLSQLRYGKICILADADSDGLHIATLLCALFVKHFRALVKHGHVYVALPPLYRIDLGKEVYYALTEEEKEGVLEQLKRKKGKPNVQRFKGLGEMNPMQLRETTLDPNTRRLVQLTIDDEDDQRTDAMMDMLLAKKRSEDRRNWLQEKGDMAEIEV

[5] = S. aureus, compound conc. 50 μM, percent of inhibition versus positive control, n/a = not active

COc1ccc2ccc(=O)n([C@H]3CC[C@H](NCc4cc5c(=O)oc6ccc(F)cc6c5[nH]4)CC3)c2c1 [Compound 219, 8-fluoro-2-({[trans-4-(7-methoxy-2-oxoquinolin-1(2H)-yl)cyclohexyl]amino}methyl)[1]benzopyrano[4,3-b]pyrrol-4(1H)-one]
IC50 [1]: 220 nM | inhibition at 50 µM [1]: 100% | IC50 [2]: 220 nM | inhibition at 50 µM [2]: 100% | IC50 ([3]; IC50 Topo IV): 650 nM | inhibition at 50 µM [3, 5]: 100% | IC50 [4]: 220 nM | inhibition at 50 µM [4]: 100%

O=c1oc2ccccc2c2[nH]c(CNCC3CCN(c4nccc5ccc(F)cc45)C3)cc12 (single isomer, unassigned) [Compound 181, 2-[({[1-(7-fluoroisoquinolin-1-yl)pyrrolidin-3-yl]methyl}amino)methyl][1]benzopyrano[4,3-b]pyrrol-4(1H)-one]
% inhibition DNA gyrase [1]: 92% | IC50 [1]: 730 nM | % inhibition DNA gyrase [2]: 53% | IC50 [2]: 440 nM | IC50 ([3]; IC50 Topo IV): 360 nM | % inhibition Topo IV [3, 5]: 50% | % inhibition Topo IV [4]: 91% | IC50 [4]: 3670 nM

COc1cnc2ccc(=O)n([C@H]3CC[C@H](NCc4cc5c(=O)oc6ccc(F)cc6c5[nH]4)CC3)c2c1 [Compound 204, 8-fluoro-2-({[trans-4-(7-methoxy-2-oxo-1,5-naphthyridin-1(2H)-yl)cyclohexyl]amino}methyl)[1]benzopyrano[4,3-b]pyrrol-4(1H)-one]
IC50 [1]: 640 nM | inhibition at 50 µM [1]: 100% | IC50 [2]: 50 nM | inhibition at 50 µM [2]: 100% | IC50 ([3]; IC50 Topo IV): < 100 nM | inhibition at 50 µM [3, 5]: 100% | IC50 [4]: < 100 nM | inhibition at 50 µM [4]: 100%

N#Cc1cnc2c(c1)N([C@H]1CC[C@H](NCc3cc4c(=O)oc5ccc(F)cc5c4[nH]3)CC1)C(=O)CO2 [Compound 214, 1-(trans-4-{[(8-fluoro-4-oxo-1,4-dihydro[1]benzopyrano[4,3-b]pyrrol-2-yl)methyl]amino}cyclohexyl)-2-oxo-2,3-dihydro-1H-pyrido[2,3-b][1,4]oxazine-7-carbonitrile]
IC50 [1]: 160 nM | inhibition at 50 µM [1]: 100% | IC50 [2]: 120 nM | inhibition at 50 µM [2]: 99% | IC50 ([3]; IC50 Topo IV): 570 nM | inhibition at 50 µM [3, 5]: 100% | IC50 [4]: 1030 nM | inhibition at 50 µM [4]: 100%

O=C1COc2ncc(F)cc2N1[C@H]1CC[C@H](NCCNc2cc(=O)oc3ccc(F)cc23)CC1 [Compound 354, 7-fluoro-1-[trans-4-({2-[(6-fluoro-2-oxo-2H-1-benzopyran-4-yl)amino]ethyl}amino)cyclohexyl]-1H-pyrido[2,3-b][1,4]oxazin-2(3H)-one]
IC50 [1]: 350 nM | IC50 [2]: 470 nM | IC50 ([3]; IC50 Topo IV): 920 nM | IC50 [4]: 180 nM

O=C1COc2ncc(F)cc2N1C1CCN(CC(O)CNc2cc(=O)oc3ccc(F)cc23)CC1 (stereo not drawn) [Compound 303, 7-fluoro-1-(1-{3-[(6-fluoro-2-oxo-2H-1-benzopyran-4-yl)amino]-2-hydroxypropyl}piperidin-4-yl)-1H-pyrido[2,3-b][1,4]oxazin-2(3H)-one]
IC50 [1]: 9920 nM | IC50 [2]: 2670 nM | IC50 ([3]; IC50 Topo IV): > 100000 nM | IC50 [4]: 620 nM

O=c1oc2ccc(F)cc2c2[nH]c(CN[C@H]3CC[C@H](n4c(=O)cnc5ccc(F)cc54)CC3)cc12 [Compound 211, 8-fluoro-2-({[trans-4-(7-fluoro-2-oxoquinoxalin-1(2H)-yl)cyclohexyl]amino}methyl)[1]benzopyrano[4,3-b]pyrrol-4(1H)-one]
IC50 [1]: < 100 nM | inhibition at 50 µM [1]: 100% | IC50 [2]: < 100 nM | inhibition at 50 µM [2]: 100% | IC50 ([3]; IC50 Topo IV): < 100 nM | inhibition at 50 µM [3, 5]: 100% | IC50 [4]: < 100 nM | inhibition at 50 µM [4]: 100%

O=c1oc2ccc(F)cc2c2[nH]c(CN[C@H]3CC[C@H](n4c(=O)ccc5ccc(F)cc54)CC3)cc12 [Compound 216, 8-fluoro-2-({[trans-4-(7-fluoro-2-oxoquinolin-1(2H)-yl)cyclohexyl]amino}methyl)[1]benzopyrano[4,3-b]pyrrol-4(1H)-one]
IC50 [1]: 310 nM | inhibition at 50 µM [1]: 100% | IC50 [2]: 130 nM | inhibition at 50 µM [2]: 100% | IC50 ([3]; IC50 Topo IV): 290 nM | inhibition at 50 µM [3, 5]: 100% | IC50 [4]: 250 nM | inhibition at 50 µM [4]: 100%

O=c1oc2ccc(F)cc2c2[nH]c(CN[C@H]3CC[C@H](n4c(=O)ccc5ncc(F)cc54)CC3)cc12 [Compound 207, 8-fluoro-2-({[trans-4-(7-fluoro-2-oxo-1,5-naphthyridin-1(2H)-yl)cyclohexyl]amino}methyl)[1]benzopyrano[4,3-b]pyrrol-4(1H)-one]
IC50 [1]: < 100 nM | inhibition at 50 µM [1]: 100% | IC50 [2]: < 100 nM | inhibition at 50 µM [2]: 100% | IC50 ([3]; IC50 Topo IV): < 100 nM | inhibition at 50 µM [3, 5]: 100% | IC50 [4]: < 100 nM | inhibition at 50 µM [4]: 100%

O=c1nc(NCC(O)CN2CCN(c3nccc4cc[n+]([O-])cc34)CC2)c2cc(F)ccc2o1 (stereo not drawn) [Compound 164, 8-(4-(3-((6-fluoro-2-oxo-2H-benzo[e][1,3]oxazin-4-yl)amino)-2-hydroxypropyl)piperazin-1-yl)-2,7-naphthyridine 2-oxide]
IC50 [1]: 1460 nM | inhibition at 50 µM [1]: 100% | IC50 [2]: 3770 nM | inhibition at 50 µM [2]: 100% | IC50 ([3]; IC50 Topo IV): 700 nM | inhibition at 50 µM [3]: 100% | IC50 [4]: 1780 nM | inhibition at 50 µM [4]: 100%

O=c1nc(NCC(O)CN2CCN(c3nccc4ccncc34)CC2)c2cc(F)ccc2o1 (stereo not drawn) [Compound 157, 6-fluoro-4-({2-hydroxy-3-[4-(2,7-naphthyridin-1-yl)piperazin-1-yl]propyl}amino)-2H-1,3-benzoxazin-2-one]
IC50 [1]: 2480 nM | inhibition at 50 µM [1]: 89% | IC50 [2]: 2340 nM | inhibition at 50 µM [2]: 83% | IC50 ([3]; S. aureus, Table 3, eight half-log concentrations ranging from 0.1 to 300 μM, read-out: IC50 Topo IV): 1020 nM | inhibition at 50 µM [3]: 100% | IC50 [4]: 640 nM | inhibition at 50 µM [4]: 100%

O=C1COc2ncc(F)cc2N1[C@H]1CC[C@](CO)(NCc2cc3c(=O)oc4ccc(F)cc4c3[nH]2)CC1 [Compound 220, 8-fluoro-2-({[trans-4-(7-fluoro-2-oxo-2,3-dihydro-1H-pyrido[2,3-b][1,4]oxazin-1-yl)-1-(hydroxymethyl)cyclohexyl]amino}methyl)[1]benzopyrano[4,3-b]pyrrol-4(1H)-one]
IC50 [1]: 1970 nM | inhibition at 50 µM [1]: 100% | IC50 [2]: 680 nM | inhibition at 50 µM [2]: 100% | IC50 ([3]; IC50 Topo IV): 2910 nM | inhibition at 50 µM [3, 5]: 100% | IC50 [4]: 740 nM | inhibition at 50 µM [4]: 50%

O=C1COc2ncc(F)cc2N1[C@H]1CC[C@H](NCc2cc3c(=O)oc4cccnc4c3[nH]2)CC1 [Compound 301]
IC50 [1]: 720 nM | IC50 [2]: 460 nM | IC50 ([3]; IC50 Topo IV): 70300 nM | IC50 [4]: 430 nM

N#Cc1cnc2c(c1)N([C@H]1CC[C@@H](NCc3cc4c(=O)oc5ccc(F)cc5c4[nH]3)CC1)C(=O)CO2 [Compound 215, 1-(cis-4-{[(8-fluoro-4-oxo-1,4-dihydro[1]benzopyrano[4,3-b]pyrrol-2-yl)methyl]amino}cyclohexyl)-2-oxo-2,3-dihydro-1H-pyrido[2,3-b][1,4]oxazine-7-carbonitrile]
inhibition at 50 µM [1]: 96% | inhibition at 50 µM [2]: 69%

Fc1ccc2ccnc(N3CCC(NCc4c[nH]c(-c5ccccn5)n4)CC3)c2c1 [Compound 160, 1-(7-fluoroisoquinolin-1-yl)-N-{[2-(pyridin-2-yl)-1H-imidazol-4-yl]methyl}piperidin-4-amine]
IC50 [1]: 20800 nM | inhibition at 50 µM [1]: 65% | inhibition at 50 µM [2]: 50% | IC50 [4]: 21500 nM | inhibition at 50 µM [4]: 60%
